The assay concerns opioid-induced respiratory depression. Description: Opioid-induced respiratory depression in the monkey. The assay is classed as in vivo, Macaca fascicularis. To be noted: 0.20 mg/kg/min 5 min, then 0.10 mg/kg/min 10 min. The procedure:
Juvenile macaques (four-year-old Macaca fascicularis, 2 to 5 kg, n=13) were used for the study. Animal husbandry was conducted under USDA guidelines and the protocols were approved by the Institutional Animal Care and Use Committee of East Carolina University.
Anesthesia was induced with 5% isoflurane and then maintained with 1.5 to 2% isoflurane (100% O2, 2 L/min). Antebrachial veins were cannulated. Vivometrics Lifeshirts (Ventura, Calif.) were fitted to the animals for monitoring respiratory function by inductance plethysmography. Abdomen and rib cage deflections were calibrated using the Qualitative Diagnostic Calibration (QDC) procedure, and tidal volume was normalized to 15 mL, which represented a typical tidal volume for these animals as previously measured using conventional techniques. Heart rate was monitored continuously by 3-lead ECG.
ETCO2 was measured via a neonatal nasal cannula connected to a microstream CO2 sensor (Cardell monitor, Model 9405). SpO2 and HR were monitored by pulse oximetry using a reflectance probe (Nelcor Max-Fast) positioned on the inner aspect of the upper arm. HR was also determined from the ECG allowing measurement when animal activity compromised the integrity of pulse oximetry signals. BP was measured in anesthetized animals using a cuff positioned on the ankle. […]

The structures appear in SMILES notation.

For `CCCNc1nc(NCCC)nc(N(C)OC)n1.O=S(=O)(O)O` [XXXVI, N-(4,6-Bis-n-propylamino-[1,3,5]triazin-2-yl)-N,O-dimethyl-hydroxylamine hydrogen sulfate], the “end-tidal carbon dioxide increases caused by the opioid” value is “full reversal” and the minute ventilation entry is listed as “increased minute ventilation”.

The values are drawn from patent US9162992B2, “Compounds and compositions for treatment of breathing control disorders or diseases” (GALLEON PHARMACEUTICALS, INC., priority 2010, dated 2015).
